Structures can show the parent of a compound that is named as a salt.
What was measured:
[1] = molecular target: T1, Galectin-4 (Homo sapiens, UniProt P56470); assay: Galectin-4 binding to asialofetuin ELISA; conditions: Gal-4 5 μg/ml, ASF 20 μg/ml
T1 construct: made in house; host or cells: E. coli
T1 sequence (P56470 1-323): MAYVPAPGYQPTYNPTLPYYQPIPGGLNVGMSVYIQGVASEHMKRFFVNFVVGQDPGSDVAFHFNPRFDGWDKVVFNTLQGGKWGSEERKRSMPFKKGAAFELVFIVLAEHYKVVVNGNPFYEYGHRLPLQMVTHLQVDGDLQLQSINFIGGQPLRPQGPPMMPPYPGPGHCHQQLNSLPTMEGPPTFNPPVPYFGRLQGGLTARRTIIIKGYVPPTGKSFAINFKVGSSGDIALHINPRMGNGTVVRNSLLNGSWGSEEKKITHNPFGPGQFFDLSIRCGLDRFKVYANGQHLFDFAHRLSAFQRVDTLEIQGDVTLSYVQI
Protocol: (§1) Effect of the inhibitors on galectin binding to its ligand asialo fetuin (ASF) was measured by galectin ELISA. Nanty-six well plates were coated overnight with 20 μg/ml ASF in coating buffer (15 mM Na2CO3 17 mM NaHCO3 pH 9.6.). The wells were washed twice with PBS and incubated with blocking buffer (1% BSA in PBS) for 1 hr. The supernatants were removed and replaced with 5 μg/ml recombinant human galectin without or with different concentrations of the compound inhibitors or lactose in blocking buffer for 1 hr at room temperature. The wells were washed and incubated with 1 μg/ml anti-galectin antibody for 2 hr. Following addition of HRP-conjugated secondary antibody for 1 hr, FAST OPD development solution was added for 15-20 minutes. The reaction was terminated by addition of 4M sulphuric acid. The plates were read at 492 nm (reference wavelength 595 nm) by a microplate reader.

[2] = test system: human pancreatic cancer PANC1 cells; assay: Pancreatic cancer cell adhesion to basement matrix; assay type: cell-based
Protocol: (§2) Nanty-six well plates were coated with 50 μl Matrigel (1:30 diluted in PBS) at 37° C. for 1 hour.
(§3) Cancer cells, pre-labelled with fluorescent die DiI at 37° C. for 20 minutes, were washed twice with PBS and resuspended into 3×10^4 cells/ml in serum-free medium. The matrix-coated 96-well plates were washed twice with PBS before introduction of 100μ cell suspension with different concentrations of the inhibitors or PBS/DMSO (control) for 1 hour at 37° C. The plates were washed twice with PBS before three randomly selected Field of Views (FOVs) were recorded by fluorescence microscope and number of adhesion cells were quantified by Image J.
(§4) MDAMB-231 or PANC-1 cells were seeded into 6-well plate (2×10^5 cells) and cultured at 37° C. for 24 hour. Galectin-3 CRISPR Cas9 Knockout plasmid (2 μg) and galectin-3 HDR plasmid (2 μg) was mixed with Plasmid Transfection Medium (21 μl) for 5 minutes before addition to a mixture of lipofectamine STEM Transfection Reagent (STEM00001) (1 μl) and Plasmid Transfection Medium (25 μl) for 10 minutes at room temperature. The cells in the 6-well plates were washed and introduced with the Plasmid DNA/Lipofectamine STEM Transfection Reagent complex at 37° C. for 24 hour. The culture medium was replaced with fresh antibiotics-free medium for further 24 hour before introduction of 10 μg/mL puromycin-containing medium every three days. Successful co-transfection of the CRISPR/Cas9 KO Plasmid and HDR Plasmid was confirmed by expression of red fluorescence protein of the cells. Galectin-3 knockout in the cells was further confirmed by immunoblotting.

[3] = test system: human umbilical vein endothelial cells (HUVECs); assay: Vascular cell tubule formation (angiogenesis); assay type: cell-based; conditions: Galectin-3 2 μg/ml, compound 10 μM
Protocol: Matrigel matrix (50 μl) was added to 96-well plates for 60 min at 37° C. to allow gel formation. HUVEC cells (1×10^5 cells/ml in 1:1 EGM/EBM2 media) was introduced to the plates without or with galectin-3 (2 μg/ml) or different concentrations of compound inhibitors for 24 hr at 37° C. Endothelial cell tube formation was examined with Laser Microscope. The total number of branching points and the sum of the lengths of tubes were measured.

[4] = test system: human colon cancer SW620 cells; assay: SW620 cell invasion through HUVECs (transwell); assay type: cell-based; conditions: compound 20 μM, transwells
Protocol: HUVECs were plated at a density of 1.5×10^4 cells in 8 μm pore transwells in 24-well plate and cultured for three days to allow formation of tight monolayer. The integrity of HUVEC monolayer was confirmed by measuring TEER and only monolayers with TEER reading>800 Ω/cm^2 were used for the invasion assay. AGA19+ or SW620 cell suspension (5×10^5 cells/ml in DMEM) was introduced with 5 μl/ml fluorescent cell labelling solution DiL for 30 min at 37° C. The fluorescence labelled cells were washed twice with PBS and resuspended into 1×10^5 cells/ml in DMEM. […] The cells at the upper side of the trans-well inserts were gently removed with cotton swabs. The cells migrated to the bottom side of the transwells were fixed with 2% paraformaldehyde for 10 min. The trans-well membrane was removed and placed on glass slides. After addition of fluorescence mounting medium containing DAPI, the fluorescence labelled cells on the membrane were quantified under a fluorescence microscope.

[5] = test system: triple-negative breast cancer MDA-MB-231 cells; assay: Triple-negative breast cancer cell adhesion to basement matrix; assay type: cell-based, human; conditions: Homo sapiens, MDA-MB-231
Protocol: as §2, §3, §4

[6] = molecular target: T2, Galectin-3 (Homo sapiens, UniProt P17931); assay: Galectin-3 binding to asialofetuin (ASF) ELISA
T2 construct: made in house; host or cells: E. coli
T2 sequence (P17931 whole entry): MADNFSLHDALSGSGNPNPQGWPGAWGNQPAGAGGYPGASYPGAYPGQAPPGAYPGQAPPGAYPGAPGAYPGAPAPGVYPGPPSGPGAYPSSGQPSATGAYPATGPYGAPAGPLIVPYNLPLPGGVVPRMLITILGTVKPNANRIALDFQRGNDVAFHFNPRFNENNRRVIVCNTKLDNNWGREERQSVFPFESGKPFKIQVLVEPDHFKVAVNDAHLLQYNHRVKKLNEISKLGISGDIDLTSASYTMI
Protocol: as §1

[7] = test system: THP-1 differentiated macrophages; assay: Galectin-3-induced IL-1β secretion from macrophages (ELISA); assay type: cell-based; conditions: Galectin-3 10 μg/ml, various concentrations
Protocol: (§5) Effect of the compound inhibitors on secretion of pro-inflammatory cytokines from macrophages were assessed in THP-1 monocyte differentiated macrophages. THP-1 cells were induced to differentiation into macrophages by incubation with 10 ng/ml PMA for 48 h at 37° C. The culture medium was then replaced with fresh medium without or with 10 μg/ml galectin-3 and various concentrations of the compound inhibitors for 24 h at 37° C. The culture medium was collected and the concentrations of TNFα and IL-1β in the culture medium were determined by TNFα and IL-1β ELISA.

[8] = test system: THP-1 differentiated macrophages; assay: Galectin-3-induced TNFα secretion from macrophages (ELISA); assay type: cell-based; conditions: Galectin-3 10 μg/ml, various concentrations
Protocol: as §5

## NC1CCN(c2nc3c(cc2F)c(=O)c(C(=O)O)cn3-c2ccc(F)cc2F)C1 (stereo not drawn) [Formula X, Tosufloxacin tosylate]
[1]
  Effect on Galectin-4 binding to asialofetuin: does not affect binding
[2]; CRISPR/Cas9 Gal3KO cells
  Effect on adhesion of galectin-3 knockout (Gal3KO) PANC1 cells: lost their inhibitory effect
[2]; control cells
  Effect on adhesion of non-transfected (con) PANC1 cells: significant reduction
[2]; different concentrations
  Inhibition of PANC1 cell adhesion to matrix: dose-dependent inhibition
[3]
  Inhibition of galectin-3-induced tubule numbers: significant inhibition
  Inhibition of galectin-3-induced vascular tubule length: significant inhibition
[4]
  Inhibition of galectin-3-mediated invasion of SW620 cells through HUVECs: significant inhibition
[5]
  IC50: ~10 µM
[6]; Galectin-3 5 μg/ml, ASF 20 μg/ml, different concentrations of compound, ELISA
  Inhibition of Galectin-3 binding to its ligand asialofetuin (ASF): inhibit galectin-3 binding to ASF in a dose-dependent manner
[6]; read-out: IC50, inhibition of Galectin-3 binding to its ligand
  IC50: ≤ 10 µM
[7]
  Inhibition of galectin-3-induced IL-1β secretion: dose-dependent inhibition
[8]
  Inhibition of galectin-3-induced TNFα secretion: dose-dependent inhibition
